Reference: publication PMC8698657, “Absorption and Transport Characteristics and Mechanisms of Carnosic Acid” (Biology, 2021)
Where two headings read alike, the source gives them in different places.

Test: Trans-enterocyte transport of CA in Caco-2 cell monolayer
Type: in vitro ADME, human
Conditions: human
Procedure: Caco-2 were cultured in EMEM complete medium containing 10% FBS, 1% non-essential amino acids, and 1% penicillin-streptomycin double antibody, and the culture conditions were 37 °C, 5% CO2, in a constant temperature incubator [16]. We first established non-toxic dose ranges of CA in Caco-2 cells using MTT assay. Dimethylsulfoxide (DMSO) was used as the vehicle to deliver CA to the cells. The final concentration of DMSO in all experiments was 0.1% (v/v) in cell culture media. Caco-2 cells were seeded in a 96-well plate at a cell density of 5 × 10^4 cells/mL per well, and cultured under 5% CO2 and 37 °C for 24 h. A quantity of 200 μL of medium was added to each well to obtain a series of CA solutions (concentrations of 25, 50, 75, and 100 μmoL). After 48 h of treatment, Caco-2 cells were subjected to the MTT assay as described previously. For the transport study, Caco-2 cells were seeded on the apical compartment (AP) of 12-well Transwell plates at a density of 2 × 10^5 cells/mL. The complete culture medium was added into basolateral (BL) and AP compartments. The basolateral medium was replaced every other day.
CA was dissolved in HBSS solution at 50, 75, and 100 μM. The HBSS solution containing CA combined with 0.5% Tween 80, 5 mmol/L EDTA or 5% PEG 400 was prepared. The cumulative migration (Qr), apparent permeability coefficient (Papp), and the Papp value of bi-direction transport of CA were calculated according to formulas.
The 0.5 mL […] containing different concentrations of CA was added to the AP side of the 12-well Transwell plate, and 1.5 mL HBSS solution was added to the BL side. At 0, 0.5, 1, 1.5, 2, 2.5, and 3 h, 0.2 mL medium was taken from the BL side and stored at −80 °C. The TEER value of each Transwell chamber was measured.
The cryopreserved Transwell samples were transferred to a 15 mL centrifuge tube, and any remaining liquid was fully washed using 1 mL of 50% methanol solution which was also transferred to the 15 mL centrifuge tube. The mixture was vortexed for 1 min, and 6 mL of ethyl acetate solution was added to the tube and vortexed for another 2 min. The mixture was centrifuged at 6000 rpm/min at 4 °C for 10 min. The supernatant was dried under vacuum, dissolved in 5% phosphoric acid methanol solution, and filtered through a 0.22 μm microporous membrane. The concentration of CA was determined by HPLC as described above.

[1] = Caco-2, CA 50 μM, Average of 0.5-3.0 h

SMILES: CC(C)c1cc2c(c(O)c1O)[C@@]1(C(=O)O)CCCC(C)(C)[C@@H]1CC2 [CA, Carnosic acid]
- Papp B→A at 0.5 h, 50 μM (Caco-2, CA 50 μM, 0.5 h): 0.12 ± 0.1 ×10⁻⁶ cm/s
- efflux ratio at 0.5 h, 50 μM (Caco-2, CA 50 μM, 0.5 h): 0.42
- Papp A→B at 0.5 h, 50 μM (Caco-2, CA 50 μM, 0.5 h, CA alone, read-out: Papp AP to BL): 0.28 ± 0.07 ×10⁻⁶ cm/s
- Papp A→B at 0.5 h, 50 μM (Caco-2, CA 50 μM, 0.5 h, read-out: Papp AP-BL): 0.28 ± 0.07 ×10⁻⁶ cm/s
- Papp B→A at 1 h, 50 μM (Caco-2, CA 50 μM, 1.0 h): 0.21 ± 0.09 ×10⁻⁶ cm/s
- efflux ratio at 1 h, 50 μM (Caco-2, CA 50 μM, 1.0 h): 0.58
- Papp A→B at 1 h, 50 μM (Caco-2, CA 50 μM, 1.0 h, CA alone, read-out: Papp AP to BL): 0.36 ± 0.01 ×10⁻⁶ cm/s
- Papp A→B at 1 h, 50 μM (Caco-2, CA 50 μM, 1.0 h, read-out: Papp AP-BL): 0.36 ± 0.01 ×10⁻⁶ cm/s
- Papp B→A at 1.5 h, 50 μM (Caco-2, CA 50 μM, 1.5 h): 0.36 ± 0.06 ×10⁻⁶ cm/s
- efflux ratio at 1.5 h, 50 μM (Caco-2, CA 50 μM, 1.5 h): 0.52
- Papp A→B at 1.5 h, 50 μM (Caco-2, CA 50 μM, 1.5 h, CA alone, read-out: Papp AP to BL): 0.69 ± 0.09 ×10⁻⁶ cm/s
- Papp A→B at 1.5 h, 50 μM (Caco-2, CA 50 μM, 1.5 h, read-out: Papp AP-BL): 0.69 ± 0.09 ×10⁻⁶ cm/s
- Papp B→A at 2 h, 50 μM (Caco-2, CA 50 μM, 2.0 h): 0.49 ± 0.07 ×10⁻⁶ cm/s
- efflux ratio at 2 h, 50 μM (Caco-2, CA 50 μM, 2.0 h): 0.44
- Papp A→B at 2 h, 50 μM (Caco-2, CA 50 μM, 2.0 h, CA alone, read-out: Papp AP to BL): 1.11 ± 0.04 ×10⁻⁶ cm/s
- Papp A→B at 2 h, 50 μM (Caco-2, CA 50 μM, 2.0 h, read-out: Papp AP-BL): 1.11 ± 0.04 ×10⁻⁶ cm/s
- Papp B→A at 2.5 h, 50 μM (Caco-2, CA 50 μM, 2.5 h): 0.56 ± 0.05 ×10⁻⁶ cm/s
- efflux ratio at 2.5 h, 50 μM (Caco-2, CA 50 μM, 2.5 h): 0.98
- Papp A→B at 2.5 h, 50 μM (Caco-2, CA 50 μM, 2.5 h, CA alone, read-out: Papp AP to BL): 0.57 ± 0.03 ×10⁻⁶ cm/s
- Papp A→B at 2.5 h, 50 μM (Caco-2, CA 50 μM, 2.5 h, read-out: Papp AP-BL): 0.57 ± 0.03 ×10⁻⁶ cm/s
- Papp B→A at 3 h, 50 μM (Caco-2, CA 50 μM, 3.0 h): 0.29 ± 0.03 ×10⁻⁶ cm/s
- efflux ratio at 3 h, 50 μM (Caco-2, CA 50 μM, 3.0 h): 1.32
- Papp A→B at 3 h, 50 μM (Caco-2, CA 50 μM, 3.0 h, CA alone, read-out: Papp AP to BL): 0.22 ± 0.02 ×10⁻⁶ cm/s
- Papp A→B at 3 h, 50 μM (Caco-2, CA 50 μM, 3.0 h, read-out: Papp AP-BL): 0.22 ± 0.02 ×10⁻⁶ cm/s
- Papp B→A at 50 μM [1]: 0.33 ± 0.03 ×10⁻⁶ cm/s
- efflux ratio at 50 μM [1]: 0.62
- Papp A→B at 50 μM (Caco-2, CA 50 μM, Average of 0.5-3.0 h, CA alone, read-out: Papp AP to BL): 0.54 ± 0.05 ×10⁻⁶ cm/s
- Papp A→B at 50 μM (Caco-2, CA 50 μM, Average of 0.5-3.0 h, read-out: Papp AP-BL): 0.53 ± 0.02 ×10⁻⁶ cm/s
- Papp B→A at 0.5 h, 75 μM (Caco-2, CA 75 μM, 0.5 h): 0.91 ± 0.02 ×10⁻⁶ cm/s
- efflux ratio at 0.5 h, 75 μM (Caco-2, CA 75 μM, 0.5 h): 0.88
- Papp A→B at 0.5 h, 75 μM (Caco-2, CA 75 μM, 0.5 h, CA alone, read-out: Papp AP to BL): 1.03 ± 0.01 ×10⁻⁶ cm/s
- Papp A→B at 0.5 h, 75 μM (Caco-2, CA 75 μM, 0.5 h, read-out: Papp AP-BL): 1.03 ± 0.01 ×10⁻⁶ cm/s
- Papp B→A at 1.5 h, 75 μM (Caco-2, CA 75 μM, 1.5 h): 0.79 ± 0.07 ×10⁻⁶ cm/s
- efflux ratio at 1.5 h, 75 μM (Caco-2, CA 75 μM, 1.5 h): 0.95
- Papp A→B at 1.5 h, 75 μM (Caco-2, CA 75 μM, 1.5 h, CA alone, read-out: Papp AP to BL): 0.83 ± 0.01 ×10⁻⁶ cm/s
- Papp A→B at 1.5 h, 75 μM (Caco-2, CA 75 μM, 1.5 h, read-out: Papp AP-BL): 0.83 ± 0.01 ×10⁻⁶ cm/s
- Papp B→A at 2 h, 75 μM (Caco-2, CA 75 μM, 2.0 h): 0.62 ± 0.01 ×10⁻⁶ cm/s
- efflux ratio at 2 h, 75 μM (Caco-2, CA 75 μM, 2.0 h): 0.33
- Papp A→B at 2 h, 75 μM (Caco-2, CA 75 μM, 2.0 h, CA alone, read-out: Papp AP to BL): 1.84 ± 0.1 ×10⁻⁶ cm/s
- Papp A→B at 2 h, 75 μM (Caco-2, CA 75 μM, 2.0 h, read-out: Papp AP-BL): 1.84 ± 0.1 ×10⁻⁶ cm/s
- Papp B→A at 2.5 h, 75 μM (Caco-2, CA 75 μM, 2.5 h): 0.41 ± 0.03 ×10⁻⁶ cm/s
- efflux ratio at 2.5 h, 75 μM (Caco-2, CA 75 μM, 2.5 h): 0.49
- Papp A→B at 2.5 h, 75 μM (Caco-2, CA 75 μM, 2.5 h, CA alone, read-out: Papp AP to BL): 0.83 ± 0.01 ×10⁻⁶ cm/s
